How the values were obtained:
HEK293T cells = test: Metabolic conversion and uptake of 2-hydroxylated fatty acids in HEK293T cell cultures; assay type: in vitro ADME, human; details: HEK293T; for Formation of the metabolite from its 2-hydroxylated prodrug in the presence of oxythiamine: prodrug 100 μM, 24 h, 10 mM oxythiamine
Method: To describe the metabolic conversion of DHA-H to HPA(C21:5 ω-3), as well as the conversion of LA-H to HDA (C17:2 ω-6), ALA-H to HTA ω-3 (C17:3 ω-3), GLA-H to HTA ω-6 (C17:3 ω-6), ARA-H to NTA (C19:4 ω-6), EPA-H to NPA (C19:5 ω-3), HEK293T (Human Embryonic Kidney Cells 293T) cell cultures were employed, which is an embryonic, non-tumoral cell line, widely used in human metabolism studies under physiological conditions.
HEK293T cells were cultured in Dulbecco's Modified Eagle's Medium (DMEM; Dubelcco's Modified Eagle's Medium, Biowest, France), supplemented with 10% FBS (Fetal Bovine Serum; Gibco, Thermo-Fisher), 2 mM L-Gln, 25 mM D(+)-glucose, 1 mM sodium pyruvate, and penicillin/streptomycin. Mouse neuroblastoma N2a cells were maintained in a 1:1 (v:v) mixture of DMEM and Opti-Mem (Gibco, Thermo-Fisher), supplemented with 5% FBS and penicillin/streptomycin. Both cell lines were incubated in an atmosphere of 5% CO2 at 37° C.
HEK293T cells were incubated with DHA-H and DHA at 10, 30 and 100 μM for 24 hours, and at 30 μM for 6, 48 and 72 hours. These cells were also incubated with LA-H, ALA-H, GLA-H, ARA-H and EPA-H at 100 μM for 24 hours. HEK293T cells were also incubated with oxythiamine in the presence of DHA-H under the same conditions, at final oxythiamine concentrations of 1 and 10 mM. The HEK293T cells were separated from the plates by pipettes with cold phosphate buffer saline solution (PBS). Cells were recovered by centrifugation (1000 xg, 10 min at 4° C.) and washed twice with cold PBS before being frozen at −80° C. To analyze DHA-H and DHA levels in the cell culture medium, 90 mm diameter plates were filled with 11 mL of complete cell culture medium containing 30 μM DHA-H or DHA in the presence or absence of attached HEK293T cells (5.10^5 cells/plate). The plates were incubated as described above and 1 ml aliquots of the plates were collected at 0, 6, 24, 48 and 72 hours. Aliquots of the cell culture medium were immediately centrifuged at 1000×g for 10 min at 4° C. to remove any cell suspension and the cell-free aliquots were stored at -20° C.
The cell lysates were subjected to ultrasound pulses (4 cycles, 10 s/cycle, 10 W) before lipid extraction. For brain analysis, the tissue of each animal was homogenized in cold PBS at 1:10 (p:v) in the presence of protease inhibitors (Roche), using a blade homogenizer (Polytron PT3100). Homogenates were ultrasounded, aliquots were made and stored at −80 ° C. Only one aliquot of each sample, containing about 8 mg protein/aliquot, was subjected to lipid extraction. Protein content before lipid extraction was determined by a modified Lowry method (Bio-rad DC Protein Assay).
Margaric acid (C17:0) was added to the samples subjected to lipid extraction as an internal standard and the lipids were extracted with chloroform:methanol (Eggers and Schwudke, 2016). Briefly, 0.75 volumes of the aqueous phase (which already contained the biological sample) were mixed with 2 volumes of chloroform and 1 volume of methanol. This mixture was vortexed for 1 minute and centrifuged at 1000×g for 10 minutes. The lower organic phase was collected and washed with 1 ml of PBS:methanol (1:1,v:v), and the resulting organic phase was dried under argon flow. The film containing the extracted lipids was transmethylated by incubation of the lipid mixture for 90 minutes at 100° C. in 3 ml of methanol:acetyl chloride (10:1, v:v), under an argon atmosphere (Christie, 1993). The resulting fatty acid methyl esters (FAMEs) were extracted with hexane, adding 3 ml of H2O and 1 ml of hexane to the transmethylation reaction, and vortexing the mixture thoroughly. After centrifugation at room temperature (1000×g for 10 min), the upper phase containing the FAMEs was collected and the remaining volume was washed twice with 1 ml of hexane.

A549 = test: IC50 in tumor cell cultures (cell survival, XTT / trypan blue); assay type: cell-based; details: A549 human lung adenocarcinoma cell line
Method: (§1) Cell survival was analyzed in a Barker chamber using trypan blue vital exclusion staining (Scharlab) or by cell proliferation kit II (Roche). Briefly, the cells were seeded in 96-well plates at a density of 3 x 10^3 cells per well 24 h prior to treatment, and then cultured in the presence or absence of compounds of interest at the concentrations and for the times indicated in the figures. After different times, plaque viable cells were determined by the addition of XTT according to the manufacturers instructions. Cells were incubated at 37° C. in 5% CO2 until a constant color was developed and absorbance was recorded at 495 nm using a microplate reader with a reference wavelength of 650 nm (FLUOstar Omega, BMG LABTECH, Germany).
(§2) The anti-tumor activity of the different metabolites described in FIGS. 8 and 9 was determined by direct treatment with these molecules (HDA or C17:2 ω-6, HTA ω-3 or C17:3 ω-3, HTA ω-6 or C17:3 ω-6, NTA or C19:4 ω-6, NPA or C19:5 ω-3, and HPA or C21:5 ω-3) in tumor cell cultures, on which the IC50 value for each of these compounds was determined (Inhibitory Concentration 50: concentration of study compound that induces death of 50% of the tumor cell population).

MIA-PaCa 2 = test: as above; assay type: cell-based; details: Homo sapiens; MIA-PaCa 2 pancreatic cancer cell line
Method: as §1, §2

[1] = tested on: BIP, CHOP, cJun phosphorylation, phosphorylation of Akt, cyclin D3; test: Western Blot of proliferation and death markers in glioma and non-tumor cell lines; assay type: cell-based; details: glioma cells, oxythiamine 2 mM, 72h
Method: FIG. 16. Analysis of the effect of different fatty acids on markers of proliferation and death in different cell lines.
(§3) To study whether the metabolite C17:1n-9 can participate in the action of 2OHOA, the effect of pre-incubation with oxythiamine on cell survival and 2OHOA-regulated proteins was studied. To do this, the cell survival of different glioma and non-tumor cell lines treated with 2OHOA (400 μM, 72 hours) and pre-incubated or not with 2 mM […] (90 minutes) was analyzed by counting the cells with the vital exclusion stain with trypan blue. In addition, Western-blot 2OHOA-modulated proteins were studied. In glioma cells, a significant decrease in cell survival was observed after incubation with 2 mM oxythiamine for 72 hours.

SF-295 = test: Cell survival by trypan blue vital exclusion staining, 2OHOA and oxythiamine; assay type: cell-based, human; details: SF-295, 2 mM oxythiamine, 72 hours
Method: FIG. 18. Effect of metabolite C17:1n-9 on the action of 2OHOA. […] Cell viability was determined by vital exclusion staining with trypan blue.
as §3

[2] = tested on: MRC-5 (human fibroblasts); test: Cell viability by violet crystal staining, 72 hours; assay type: cell-based; details: MRC-5 non-tumor cells
Method: FIG. 15. Effect of 2OHOA sodium salt, C17:1n-9 sodium salt, and OA on cell viability and proliferation of non-tumor cells. Non-tumor cell viability curves (A1-A3) MRC-5 (human fibroblasts); and (B1-B3) mouse astrocytes treated with increasing doses of 2OHOA sodium salt (0-1000 μM) (A1 and B1); OA (0-300 μM) (A2 and B2); and C17:1n-9 sodium salt (0-300 μM) (A3 and B3) for 72 hours. Viability was determined by violet crystal staining.
(§4) In order to evaluate the antiproliferative effect of C17:1n-9, its IC50, which corresponds to the amount of a compound needed to reduce cell viability in vitro by 50%, as well as its effect on the regulation of proteins involved in the mechanism of action of 2OHOA, were determined. […] Upon completion of treatment, IC50 was determined by violet crystal staining technique. […] The IC50 of 2OHOA was 1000 μM for non-tumor cells, MRC-5 and astrocytes.

SF-295 glioma cells = test: as above; assay type: cell-based, human; details: SF-295, 72 hours
Method: FIG. 14. Effect of 2OHOA sodium salt, OA and C17:1n-9 sodium salt on cell viability and proliferation of glioma cells. […] Viability was determined by violet crystal staining.
as §4

CCCCC/C=C\C/C=C\CCCCCCC(=O)O [HDA, (8Z,11Z)-heptadeca-8,11-dienoic acid]
Formation of the metabolite from its 2-hydroxylated prodrug in the presence of oxythiamine (HEK293T cells): inhibited | IC50 (A549): 159 ± 10 µM | IC50 (MIA-PaCa 2): 234 ± 18 µM

CC/C=C\C/C=C\C/C=C\C/C=C\C/C=C\C/C=C\CCC(=O)O [DHA, docosahexaenoic acid, reference compound]
Levels in the culture medium in the presence of cell culture (uptake) (HEK293T cells; 30 μM, up to 72 h): decreased significantly at 48 and 72 h

Cc1ncc(C[n+]2csc(CCO)c2C)c(=O)[nH]1 [oxythiamine, reference compound]
Effect on signaling proteins (Western Blot) [1]: in the same sense as 2OHOA, although milder | Inhibition of the increase in HPA levels from DHA-H (HEK293T cells; oxythiamine 1 mM): partial inhibition | Inhibition of the increase in HPA levels from DHA-H (HEK293T cells; oxythiamine 10 mM): almost total | Cell death (SF-295): 17.35±0.63%

CC/C=C\C/C=C\C/C=C\C/C=C\C/C=C\CCC(=O)O [NPA, (4Z,7Z,10Z,13Z,16Z)-nonadeca-4,7,10,13,16-pentaenoic acid]
Formation of the metabolite from its 2-hydroxylated prodrug in the presence of oxythiamine (HEK293T cells): inhibited | IC50 (A549): 143 ± 39 µM | IC50 (MIA-PaCa 2): 91 ± 18 µM

CCCCC/C=C\C/C=C\C/C=C\C/C=C\CCC(=O)O [NTA, (4Z,7Z,10Z,13Z)-nonadeca-4,7,10,13-tetraenoic acid]
Formation of the metabolite from its 2-hydroxylated prodrug in the presence of oxythiamine (HEK293T cells): inhibited | IC50 (A549): 216 ± 3 µM | IC50 (MIA-PaCa 2): 62 ± 2 µM

CCCCC/C=C\C/C=C\C/C=C\CCCC(=O)O [HTA n-6, (5Z,8Z,11Z)-heptadeca-5,8,11-trienoic acid]
Formation of the metabolite from its 2-hydroxylated prodrug in the presence of oxythiamine (HEK293T cells): inhibited | IC50 (A549): 212 ± 48 µM | IC50 (MIA-PaCa 2): 95 ± 31 µM

CC/C=C\C/C=C\C/C=C\CCCCCCC(=O)O [HTA n-3, (8Z,11Z,14Z)-heptadeca-8,11,14-trienoic acid]
Formation of the metabolite from its 2-hydroxylated prodrug in the presence of oxythiamine (HEK293T cells): inhibited | IC50 (A549): 166 ± 30 µM | IC50 (MIA-PaCa 2): 216 ± 24 µM

CCCCCCCC/C=C\CCCCCCCC(=O)[O-].[Na+] [OA, reference compound]
IC50 [2]: 236 ± 6.73 µM | IC50 (SF-295 glioma cells): 256 ± 5.79 µM

— patent publication US20230097753A1, “ALPHA-HYDROXYLATED FATTY-ACID METABOLITES, MEDICAL USES AND USE AS BIOMARKERS” (UNIVERSITAT DE LES ILLES BALEARS, priority 2020, published 2023)
